Experimental findings from patent publication US20070135490A1, “Phenetanolamine derivatives” (priority 2003, published 2007) are described below.

The assay deals with T1, human beta-2 receptor (Homo sapiens, UniProt P07550).
T1 construct: expressed in transfected cells; host or cells: Chinese hamster ovary cells (whole cells or membranes derived from them)
Put plainly: Chinese hamster ovary cells co-expressing the human receptor with a reporter gene, cAMP measurement in whole cells or membranes (Method 2). It counts as cell-based. The following applies: CHO cells or membranes, read-out: pEC50 at the human beta-2 receptor (converted). The method, then: Potency of compounds of the invention at the human beta 2, 1 and 3 receptors was also determined using Chinese hamster ovary cells co-expressing the human receptor with a reporter gene. Studies were performed using either whole cells or membranes derived from those cells.
The three beta-receptors are coupled via the Gs G-protein to cause a simulation of adenylate cyclase resulting in increased levels of cAMP in the cell. For direct cAMP measurements either membranes or cells have been used with either the HitHunter enzyme fragment complementation kit (DiscoveRx) or the FP^2 fluorescence polarisation kit (Perkin Elmer) to quantify the levels of cAMP present. These assays provide a measure of agonist potency and intrinsic activity of the compounds at the various receptors. […]
In this assay the potency of compounds at the human beta-2 receptor is expressed as a pEC50 value. Compounds of examples 12-26, 28-50 and 52-64 had pEC50 values greather than 6. […] No result is available for the compound of example 51.
In general terms: A reporter such as luciferase makes a cellular process visible.

T1 sequence (P07550 whole entry): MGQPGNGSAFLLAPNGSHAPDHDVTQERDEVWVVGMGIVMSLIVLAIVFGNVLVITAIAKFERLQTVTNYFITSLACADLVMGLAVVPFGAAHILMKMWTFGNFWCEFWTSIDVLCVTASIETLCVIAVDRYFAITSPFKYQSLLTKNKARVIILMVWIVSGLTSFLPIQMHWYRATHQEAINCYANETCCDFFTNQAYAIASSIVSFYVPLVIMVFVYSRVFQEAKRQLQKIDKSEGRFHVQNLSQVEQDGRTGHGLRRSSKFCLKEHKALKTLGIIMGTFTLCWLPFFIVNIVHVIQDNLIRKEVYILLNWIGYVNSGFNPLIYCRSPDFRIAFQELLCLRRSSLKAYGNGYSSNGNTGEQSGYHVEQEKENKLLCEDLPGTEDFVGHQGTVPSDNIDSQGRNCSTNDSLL

As for `OCc1cc([C@@H](O)CNCCc2cccc(COCCc3cccc(F)c3)c2)ccc1O` [Example 39, Formic acid compound with 4-((1R)-2-{[2-(3-{[2-(3-fluorophenyl)ethoxy]methyl}phenyl)ethyl]amino}-1-hydroxyethyl)-2-(hydroxymethyl)phenol (1:1)], the EC50 was < 1 µM.
For `OCc1cc([C@@H](O)CNCCc2cccc(COCc3ccccc3F)c2)ccc1O` [Example 48, Formic acid compound with 4-((1R)-2-{[2-(3-{[(2-fluorobenzyl)oxy]methyl}phenyl)ethyl]amino}-1-hydroxyethyl)-2-(hydroxymethyl)phenol (1:1)] the value was < 1 µM.
For `OCc1cc([C@@H](O)CNCCc2cccc(COCCOCc3c(Cl)cccc3Cl)c2)ccc1O` [Example 14, Formic acid compound with 4-[(1R)-2-({2-[3-({2-[(2,6-dichlorobenzyl)oxy]ethoxy}methyl)phenyl]ethyl}amino)-1-hydroxyethyl]-2-(hydroxymethyl)phenol (1:1)] the value was < 1 µM.
For `OCc1cc([C@@H](O)CNCCc2cccc(COCCCCc3c(Cl)cccc3Cl)c2)ccc1O` [Example 57, Formic acid compound with 4-((1R)-2-{[2-(3-{[4-(2,6-dichlorophenyl)butoxy]methyl}phenyl)ethyl]amino}-1-hydroxyethyl)-2-(hydroxymethyl)phenol (1:1)] the value was < 1 µM; for `OCc1cc([C@@H](O)CNCCc2cccc(COCCc3ccccc3F)c2)ccc1O` [Example 41, Formic acid compound with 4-((1R)-2-{[2-(3-{[2-(2-fluorophenyl)ethoxy]methyl}phenyl)ethyl]amino}-1-hydroxyethyl)-2-(hydroxymethyl)phenol (1:1)], < 1 µM; for `NS(=O)(=O)c1cccc(CCCCOCc2cccc(CCNC[C@H](O)c3ccc(O)c(CO)c3)c2)c1` [Example 12, Formic acid compound with 3-[4-({3-[2-({(2R)-2-Hydroxy-2-[4-hydroxy-3-(hydroxymethyl)phenyl]ethyl}amino)ethyl]benzyl}oxy)butyl]benzenesulfonamide (1:1)], < 1 µM.
Consider `O=S(=O)(c1cccc(COCCOCc2cccc(CCNC[C@H](O)c3ccc(O)c(CO)c3)c2)c1)C1CCCC1` [Example 33, Formic acid compound with 4-{(1R)-2-[(2-{3-[(2-{[3-(cyclopentylsulfonyl)benzyl]oxy}ethoxy)methyl]phenyl}ethyl)amino]-1-hydroxyethyl}-2-(hydroxymethyl)phenol (1:1)], for which the EC50 was < 1 µM.
With `CS(=O)(=O)c1ccc(CCCOCc2cccc(CCNC[C@H](O)c3ccc(O)c(CO)c3)c2)cc1` [Example 23, Formic acid compound with 2-(hydroxymethyl)-4-[(1R)-1-hydroxy-2-({2-[3-({3-[4-(methylsulfonyl)phenyl]propoxy}methyl)phenyl]ethyl}amino)ethyl]phenol (1:1)], the EC50 was < 1 µM.
For `N#Cc1cccc(COCCOCc2cccc(CCNC[C@H](O)c3ccc(O)c(CO)c3)c2)c1` [Example 13, Formic acid compound with 3-{[2-({3-[2-({(2R)-2-hydroxy-2-[4-hydroxy-3-(hydroxymethyl)phenyl]ethyl}amino)ethyl]benzyl}oxy)ethoxy]methyl}benzonitrile (1:1)] the value was < 1 µM.
For `N#Cc1ccc(COCc2cccc(CCNC[C@H](O)c3ccc(O)c(CO)c3)c2)cc1` [Example 43, Formic acid compound with 4-[({3-[2-({(2R)-2-hydroxy-2-[4-hydroxy-3-(hydroxymethyl)phenyl]ethyl}amino)ethyl]benzyl}oxy)methyl]benzonitrile (1:1)] the value was < 1 µM.
`[O-][S+](c1cccc(CCCCOCc2cccc(CCNC[C@H](O)c3ccc(O)c(CO)c3)c2)c1)C1CCCC1` (stereo partly drawn) [Example 36, Formic acid compound with 4-[(1R)-2-({2-[3-({4-[3-(cyclopentylsulfinyl)phenyl]butoxy}methyl)phenyl]ethyl}amino)-1-hydroxyethyl]-2-(hydroxymethyl)phenol (1:1)]: the EC50 was < 1 µM.
